“Also recorded” adds a separate entry of the source.
Columns and labels:
USP9X catalytic domain [1] = target: T1, USP9X catalytic domain (Homo sapiens, UniProt Q93008); assay: Ub-PA suicide probe competition assay; format: biochemical; details: 50 µM compound, WT catalytic domain
T1 construct: His/SUMO (pOPIN-S vector) (N, cleaved yes); made in house; host or cells: E. coli BL21
T1 sequence (Q93008 1551-1970): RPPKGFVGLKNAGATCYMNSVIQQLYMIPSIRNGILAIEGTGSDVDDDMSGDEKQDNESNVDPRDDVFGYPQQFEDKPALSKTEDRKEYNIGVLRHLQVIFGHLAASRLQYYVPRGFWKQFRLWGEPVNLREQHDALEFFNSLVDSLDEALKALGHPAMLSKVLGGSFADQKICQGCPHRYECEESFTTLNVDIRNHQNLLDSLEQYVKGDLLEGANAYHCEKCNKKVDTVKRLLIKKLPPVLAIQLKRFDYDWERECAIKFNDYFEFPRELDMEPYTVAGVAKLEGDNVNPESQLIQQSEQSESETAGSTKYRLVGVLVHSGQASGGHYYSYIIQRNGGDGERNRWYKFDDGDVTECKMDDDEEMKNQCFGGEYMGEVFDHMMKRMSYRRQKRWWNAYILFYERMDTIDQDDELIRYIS
Description: For inhibitor activity assays, USP9X catalytic domain (di-ubiquitin cleavage assay: 750 nM, ubiquitin-probe assays: 2.5 µM) was pre-incubated with USP9X inhibitors for 30 min at ambient temperature and subsequently mixed with di-ubiquitin (final concentration 2 µM) in assay buffer (25 mM Tris [pH 8.0], 150 mM NaCl, 10 mM DTT) at pH 8.0 or was mixed with ubiquitin-propargylamide (Ub-PA)/ubiquitin-vinyl sulfonate (Ub-VS) probes at a final concentration of 10 µM in assay buffer. For both assays, the mixture was incubated over a time course, and the reaction was stopped by mixing samples with 2× LDS sample buffer (Invitrogen) supplemented with 3% (v/v) 2-mercaptoethanol. All protein samples were run on a 4–12% Bis-Tris SDS-PAGE gradient gel (Invitrogen) for 60 min at 140 V. The gel was stained with InstantBlue® (Abcam) and imaged.

ACHN cells [2] = assay: IncuCyte live-cell imaging cell death, ACHN; format: cell-based, human; details: 10 µM
Description: (§1) Cells were seeded at varying densities (1000–8000 cells per well) after initial optimisation in a 96-well tissue culture-treated plate (Thermo Fisher Scientific). Cells were incubated o/n, and the next day, inhibitors and controls diluted in cell media were added to the cells to a final volume of 200 μL per well. Cell death was measured using PI (Sigma-Aldrich). Cells were imaged with four images per well every 2 h for up to 96 h using the IncuCyte live-cell analysis system (S3, Sartorius). Cell proliferation data were analysed using Microsoft Excel by normalising confluence to control conditions. For cell killing readouts, the number of PI-positive cells was normalised to the control conditions for each timepoint.

MiaPaca2 cells = assay: Lattice light sheet imaging of mitosis, MiaPaca2; format: cell-based, human; details: 15 µM
Description: (§2) MDA-MB-231, MiaPaca2, HMEC-1, SK-MEL-2 and UO-31 cells were seeded at 2–15 × 10^4 cells/mL in 8-well glass µ-slides (ibidi). […] SPY650-Tubulin, SPY555-DNA (both Spirochrome, Inc.), and Annexin V FITC (Sigma-Aldrich) were added at a final concentration of 1 in 1000. Cells were left to grow for 24 h before time-lapse live-cell data were acquired using a Lattice Light Sheet 7 (Zeiss). […] Aberration correction was set to a value of 170 to minimise aberrations as determined by imaging the Point Spread Function using 100 nm fluorescent microspheres. Data were collected with a frame time of 10 ms and a z step of 0.4 μm with 834 frames per 290 μm by 290 μm. Individual regions were imaged in parallel across six wells of the eight-well chamber slide. Data are presented as Maximum Intensity Projections (MIPs), and these MIPs were used for all downstream analysis. Tile regions were imaged for 24 h with 10 min intervals at 37 °C, 5% CO2. Analysis was performed using the MIPs of the different full fields of cells over the 24–48 h time period. Mitosis and mitosis arrest were classified through a combination of automated image analysis and manual validation. […] Small erroneous detected spots were further removed through a manually adjusted size filter. […] The mean intensity of all tracks was then measured to determine mitosis and mitosis arrest. […]

[3] = system: human dermal fibroblasts (HDF); assay: IncuCyte live-cell imaging cell death, HDF; format: cell-based; details: 50 µM (Appendix Fig. S4E)
Description: as §1

USP9X catalytic domain [4] = target: T1, USP9X catalytic domain; assay: Ub-Rho cleavage assay; format: biochemical; details: relative to WEHI-553
Description: The reaction was stopped through the addition of 10 mM citric acid. The assay was performed in 384-well format with a total reaction volume of 16 µL. Data was collected using the ClarioSTAR plate reader (BMG Labtech) at an emission of 535 nm. […] IC50 values presented in our study are the mean of three independent biological repeats unless indicated otherwise.

ACHN cells [5] = assay: Colony formation assay, ACHN; format: cell-based, human; details: 10 µM, 7–12 days
Description: Cells were seeded at low density (200–4000 cells per well) after initial optimisation in a six-well tissue culture-treated plate (Falcon). Twenty-four hours post seeding, media was replaced, and the inhibitor was added. Cells were left to grow into colonies between 7 and 12 days, depending on the cell line. For analysis, the media was removed, and the cells were fixed with 10% (w/v) formalin for 10 min. Colonies were stained with crystal violet (Sigma-Aldrich, 0.5% [w/v] in 20% [v/v] MeOH) for 10 min and washed thrice with distilled H2O. Plates were imaged using the ChemiDoc imaging system (Bio-Rad) and analysed using the ImageJ ColonyArea plugin as described previously (Guzmán et al, [2014]).

HMEC-1 cells = assay: Lattice light sheet imaging of mitosis, HMEC-1; format: cell-based, human; details: 15 µM, imaged 24-48 h
Description: as §2

UO-31 cells = assay: IncuCyte live-cell imaging cell death (PI uptake), UO-31; format: cell-based, human
Description: as §1

Cc1[nH]c2ccc(C(=O)N3CCN(S(=O)(=O)c4ccc5c(c4)OCCO5)CC3)cc2c1C [WEHI-092] was tested, and the “modification of USP9X with Ub-PA probe” value (USP9X catalytic domain [1]) was “prevented the modification of USP9X with ubiquitin propargylamide; also recorded: unable to be modified by the probe”, the “response of ACHN cells (cell death)” value (ACHN cells [2]) was “limited response” and the “apoptosis on metaphase arrest (Annexin V uptake), MiaPaca2” value (MiaPaca2 cells) was “did not trigger apoptosis”. For the same compound, the “cell division phenotype, MiaPaca2” value (MiaPaca2 cells; imaged 24-48 h) was “significant defects in cell division”, the “toxicity to HDFs” value [3] was “non-lethal and non-toxic” and the “improvement of IC50 towards USP9X by SAR” value (USP9X catalytic domain [4]) was > 16 fold. For the same compound, the “clonogenic potential, ACHN” value (ACHN cells [5]) was “apparent increase in cell proliferation”, the “cell division phenotype, HMEC-1” value (HMEC-1 cells) was “proceeded through mitosis normally” and the “cell killing of UO-31 cells (IncuCyte)” value (UO-31 cells) was “killed”.

Source: PMC13144739, “Global analysis of cancer cell responses to USP9X inhibition” (The EMBO Journal, 2026)
